EP4810052A2, “HCRHR2 SELECTIVE POLYPEPTIDES” (Gubra A/S, priority 2023, dated 2026)
Read-outs that look alike come from different tables or passages of the source. Starred links: 1 amine or outer side, 2 acyl side, 3 side chain; linkers in the order of their positions; H or OH if unused. Non-standard residues stand in square brackets, D forms with d. Residues, ends and D or L forms follow the SMILES beside them. Groups on a side chain read outwards from the residue. *: point of attachment. C20 diacid = O=C(O)CCCCCCCCCCCCCCCCCCC(=O)*; Pro(cis-4-F) = O=C(O)[C@@H]1C[C@H](F)CN1; γGlu = O=C(O)[C@H](CCC(=O)[*:2])N[*:1]; Hyp = O=C(O)[C@@H]1C[C@@H](O)CN1; Nle = CCCC[C@H](N)C(=O)O; Ac5c = NC1(C(=O)O)CCCC1; AEEA = NCCOCCOCC(=O)O

Legend:
[1] = biological target: T1, hCRHR2 (Homo sapiens, UniProt Q13324); experiment: HTRF cAMP assay, determination of hCRHR2 potency (peptide libraries 5 conc., purified peptides 11 conc.); assay type: cell-based
T1 sequence (Q13324 1-411): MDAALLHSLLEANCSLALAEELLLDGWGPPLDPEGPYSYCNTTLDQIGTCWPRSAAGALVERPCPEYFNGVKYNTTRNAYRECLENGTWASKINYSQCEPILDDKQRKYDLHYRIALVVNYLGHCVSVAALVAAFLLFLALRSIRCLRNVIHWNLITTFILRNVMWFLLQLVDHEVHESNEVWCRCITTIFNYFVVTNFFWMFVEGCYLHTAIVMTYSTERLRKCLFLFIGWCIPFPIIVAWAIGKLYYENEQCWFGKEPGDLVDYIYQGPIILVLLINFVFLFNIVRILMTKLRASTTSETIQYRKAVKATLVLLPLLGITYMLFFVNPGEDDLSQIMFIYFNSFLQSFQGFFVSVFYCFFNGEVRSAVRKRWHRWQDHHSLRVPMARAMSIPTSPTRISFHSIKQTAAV
Procedure, shortened: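 CHO-K1 cells stably expressing human CRHR2, thawed from frozen stocks just before use and run in suspension; cAMP measured by competitive HTRF immunoassay (cryptate anti-cAMP, d2-cAMP). Agonist peptides tested at 5 (libraries) or 11 (purified) concentrations; EC50 from sigmoid variable-slope nonlinear regression.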

[2] = biological target: T2, hCRHR1 (Homo sapiens, UniProt P34998); experiment: HTRF cAMP assay, determination of hCRHR1 potency (peptide libraries 5 conc., purified peptides 11 conc.); assay type: cell-based
T2 sequence (P34998 24-415): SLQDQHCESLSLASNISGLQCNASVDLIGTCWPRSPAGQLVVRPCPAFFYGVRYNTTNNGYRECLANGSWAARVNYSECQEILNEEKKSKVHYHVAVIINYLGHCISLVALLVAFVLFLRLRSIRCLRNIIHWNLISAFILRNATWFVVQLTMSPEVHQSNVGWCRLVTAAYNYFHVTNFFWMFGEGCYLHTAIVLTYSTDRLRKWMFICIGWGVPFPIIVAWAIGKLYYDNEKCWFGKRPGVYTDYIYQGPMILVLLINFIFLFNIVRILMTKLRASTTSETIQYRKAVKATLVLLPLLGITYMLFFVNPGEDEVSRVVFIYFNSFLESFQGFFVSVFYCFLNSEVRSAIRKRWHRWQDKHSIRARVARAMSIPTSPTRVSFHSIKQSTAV
Procedure, shortened: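 CHO-K1 cells stably expressing human CRHR1, thawed from frozen stocks just before use, were stimulated in suspension with agonist peptides. cAMP was measured by HTRF competitive immunoassay (cryptate anti-cAMP antibody vs d2-cAMP).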

[3] = library peptides, matched molecular pairs L vs Nle in position X^38, read-out: Potency hCRHR2 pEC50 (converted)
[4] = library peptides, matched molecular pairs L vs Nle in position X^38, read-out: Potency hCRHR1 pEC50 (converted)

Structure (SMILES)	EC50 ([1]; Table 3, matched molecular pairs X^38 L vs Nle, peptide library of Example 4, read-out: hCRHR2 pEC50 (converted))	EC50 ([2]; Table 3, matched molecular pairs X^38 L vs Nle, peptide library of Example 4, read-out: hCRHR1 pEC50 (converted))	EC50 [1, 3]	EC50 [2, 4]
CCCC[C@H](NC(=O)[C@@H](NC(=O)[C@H](CCC(=O)O)NC(=O)[C@H](C)NC(=O)[C@H](CC(N)=O)NC(=O)[C@@H](NC(=O)[C@H](CCCCNC(=O)COCCOCCNC(=O)COCCOCCNC(=O)CC[C@H](NC(=O)CC[C@H](NC(=O)CCCCCCCCCCCCCCCCCCC(=O)O)C(=O)O)C(=O)O)NC(=O)[C@H](C)NC(=O)[C@H](CCC(=O)O)NC(=O)[C@H](CCC(=O)O)NC(=O)[C@H](CCCNC(=N)N)NC(=O)[C@H](CCC(N)=O)NC(=O)[C@H](C)NC(=O)[C@H](CCCNC(=N)N)NC(=O)[C@H](C)NC(=O)[C@H](CCCNC(=N)N)NC(=O)[C@H](C)NC(=O)[C@H](CCC(N)=O)NC(=O)[C@H](CCC(=O)O)NC(=O)[C@H](CC(C)C)NC(=O)[C@H](CC(C)C)NC(=O)[C@@H](NC(=O)[C@H](CCC(N)=O)NC(=O)[C@H](CC(C)C)NC(=O)[C@H](CC(C)C)NC(=O)CNC(=O)[C@@H](NC(=O)[C@@H]1CCCN1C(=O)[C@@H](NC(=O)[C@H](CC(=O)O)NC(=O)[C@H](CC(C)C)NC(=O)[C@H](CO)NC(=O)[C@H](CC(C)C)NC(=O)[C@@H](NC(=O)[C@@H](N)[C@@H](C)CC)C(C)C)C(C)C)[C@@H](C)CC)[C@@H](C)CC)[C@@H](C)O)[C@@H](C)CC)C(=O)N[C@@H](C)C(=O)N[C@@H](CCC(=O)O)C(=O)N[C@H](C(N)=O)C(C)C [SEQ ID NO: 34] (H-IVLSLDVPIGLLQILLEQARARAQREEAK([AEEA-AEEA-γGlu-γGlu-C20 diacid])TNAEI[Nle]AEV-NH2)	0.251 nM	100000 nM		
CC[C@H](C)[C@H](N)C(=O)N[C@H](C(=O)N[C@@H](CC(C)C)C(=O)N[C@@H](CO)C(=O)N[C@@H](CC(C)C)C(=O)N[C@@H](CC(=O)O)C(=O)N[C@H](C(=O)N1CCC[C@H]1C(=O)N[C@H](C(=O)NCC(=O)N[C@@H](CC(C)C)C(=O)N[C@@H](CC(C)C)C(=O)N[C@@H](CCC(N)=O)C(=O)N[C@H](C(=O)N[C@@H](CC(C)C)C(=O)N[C@@H](CC(C)C)C(=O)N[C@@H](CCC(=O)O)C(=O)N[C@@H](CCC(N)=O)C(=O)N[C@@H](C)C(=O)N[C@@H](CCCNC(=N)N)C(=O)N[C@@H](C)C(=O)N[C@@H](CCC(N)=O)C(=O)N[C@@H](C)C(=O)N[C@@H](C)C(=O)N[C@@H](CCCNC(=N)N)C(=O)N[C@@H](CCC(=O)O)C(=O)N[C@@H](CCCNC(=N)N)C(=O)N[C@@H](C)C(=O)N[C@@H](CCCCNC(=O)COCCOCCNC(=O)COCCOCCNC(=O)CC[C@H](NC(=O)CC[C@H](NC(=O)CCCCCCCCCCCCCCCCCCC(=O)O)C(=O)O)C(=O)O)C(=O)N[C@H](C(=O)N[C@@H](CC(N)=O)C(=O)N[C@@H](C)C(=O)N[C@@H](CCC(=O)O)C(=O)N[C@H](C(=O)N[C@@H](CC(C)C)C(=O)N[C@@H](C)C(=O)N[C@@H](CCC(=O)O)C(=O)N[C@H](C(N)=O)C(C)C)[C@@H](C)CC)[C@@H](C)O)[C@@H](C)CC)[C@@H](C)CC)C(C)C)C(C)C [compound 48] (H-IVLSLDVPIGLLQILLEQARAQAARERAK([AEEA-AEEA-γGlu-γGlu-C20 diacid])TNAEILAEV-NH2)			0.398 nM	20000 nM
CCCC[C@H](NC(=O)[C@@H](NC(=O)[C@H](CCC(=O)O)NC(=O)[C@H](C)NC(=O)[C@H](CC(N)=O)NC(=O)[C@@H](NC(=O)[C@H](CCCCNC(=O)COCCOCCNC(=O)COCCOCCNC(=O)CC[C@H](NC(=O)CC[C@H](NC(=O)CCCCCCCCCCCCCCCCCCC(=O)O)C(=O)O)C(=O)O)NC(=O)[C@H](C)NC(=O)[C@H](CCC(N)=O)NC(=O)[C@H](CCC(=O)O)NC(=O)[C@H](CCCNC(=N)N)NC(=O)[C@H](C)NC(=O)[C@H](C)NC(=O)[C@H](CCCNC(=N)N)NC(=O)[C@H](C)NC(=O)[C@H](CCCNC(=N)N)NC(=O)[C@H](C)NC(=O)[C@H](CCC(N)=O)NC(=O)[C@@H](NC(=O)[C@H](CC(C)C)NC(=O)[C@H](CC(C)C)NC(=O)[C@@H](NC(=O)[C@H](CCC(N)=O)NC(=O)[C@H](CC(C)C)NC(=O)[C@H](CC(C)C)NC(=O)CNC(=O)[C@@H](NC(=O)[C@@H]1C[C@H](F)CN1C(=O)[C@@H](NC(=O)[C@H](CC(=O)O)NC(=O)[C@H](CC(C)C)NC(=O)[C@H](CO)NC(=O)[C@H](CC(C)C)NC(=O)[C@@H](NC(=O)[C@@H](N)[C@@H](C)CC)C(C)C)C(C)C)[C@@H](C)CC)[C@@H](C)CC)[C@@H](C)O)[C@@H](C)O)[C@@H](C)CC)C(=O)N[C@@H](C)C(=O)N[C@@H](CCC(=O)O)C(=O)N[C@H](C(N)=O)C(C)C [compound 81] (H-IVLSLDV[Pro(cis-4-F)]IGLLQILLTQARARAAREQAK([AEEA-AEEA-γGlu-γGlu-C20 diacid])TNAEI[Nle]AEV-NH2)			0.2 nM	398000 nM

The next lines start with the values.

EC50 ([1]; Table 3, matched molecular pairs X^38 L vs Nle, peptide library of Example 4, read-out: hCRHR2 pEC50 (converted))	EC50 ([2]; Table 3, matched molecular pairs X^38 L vs Nle, peptide library of Example 4, read-out: hCRHR1 pEC50 (converted))	EC50 [1, 3]	EC50 [2, 4]	Structure (SMILES)
		0.316 nM	2.51 nM	CCCC[C@H](NC(=O)[C@@H](NC(=O)[C@H](CCC(=O)O)NC(=O)[C@H](C)NC(=O)[C@H](CC(N)=O)NC(=O)[C@@H](NC(=O)[C@H](CCCCNC(=O)COCCOCCNC(=O)COCCOCCNC(=O)CC[C@H](NC(=O)CC[C@H](NC(=O)CCCCCCCCCCCCCCCCCCC(=O)O)C(=O)O)C(=O)O)NC(=O)[C@H](C)NC(=O)[C@H](CCC(N)=O)NC(=O)[C@H](CCC(=O)O)NC(=O)[C@H](CCCNC(=N)N)NC(=O)[C@H](C)NC(=O)[C@H](C)NC(=O)[C@H](CCCNC(=N)N)NC(=O)[C@H](C)NC(=O)[C@H](CCCNC(=N)N)NC(=O)[C@H](C)NC(=O)[C@H](CCC(N)=O)NC(=O)[C@H](CCC(=O)O)NC(=O)[C@H](CC(C)C)NC(=O)[C@H](CC(C)C)NC(=O)[C@@H](NC(=O)[C@H](CCC(N)=O)NC(=O)[C@H](CC(C)C)NC(=O)[C@H](CC(C)C)NC(=O)CNC(=O)[C@@H](NC(=O)[C@@H]1C[C@H](F)CN1C(=O)C1(NC(=O)[C@H](CC(=O)O)NC(=O)[C@H](CC(C)C)NC(=O)[C@H](CO)NC(=O)[C@H](CC(C)C)NC(=O)[C@@H](NC(=O)[C@@H](N)[C@@H](C)CC)C(C)C)CCCC1)[C@@H](C)CC)[C@@H](C)CC)[C@@H](C)O)[C@@H](C)CC)C(=O)N[C@@H](C)C(=O)N[C@@H](CCC(=O)O)C(=O)N[C@H](C(N)=O)C(C)C [compound 87] (H-IVLSLD[Ac5c][Pro(cis-4-F)]IGLLQILLEQARARAAREQAK([AEEA-AEEA-γGlu-γGlu-C20 diacid])TNAEI[Nle]AEV-NH2)
		1 nM	25.1 nM	CC[C@H](C)[C@H](N)C(=O)N[C@H](C(=O)N[C@@H](CC(C)C)C(=O)N[C@@H](CO)C(=O)N[C@@H](CC(C)C)C(=O)N[C@@H](CC(=O)O)C(=O)N[C@H](C(=O)N1C[C@H](O)C[C@H]1C(=O)N[C@H](C(=O)NCC(=O)N[C@@H](CC(C)C)C(=O)N[C@@H](CC(C)C)C(=O)N[C@@H](CCC(N)=O)C(=O)N[C@H](C(=O)N[C@@H](CC(C)C)C(=O)N[C@@H](CC(C)C)C(=O)N[C@@H](CCC(=O)O)C(=O)N[C@@H](CCC(N)=O)C(=O)N[C@@H](C)C(=O)N[C@@H](CCCNC(=N)N)C(=O)N[C@@H](C)C(=O)N[C@@H](CCCNC(=N)N)C(=O)N[C@H](C(=O)N[C@@H](C)C(=O)N[C@@H](CCCNC(=N)N)C(=O)N[C@@H](CCC(=O)O)C(=O)N[C@@H](CCC(N)=O)C(=O)N[C@@H](C)C(=O)N[C@@H](CCCCNC(=O)COCCOCCNC(=O)COCCOCCNC(=O)CC[C@H](NC(=O)CC[C@H](NC(=O)CCCCCCCCCCCCCCCCCCC(=O)O)C(=O)O)C(=O)O)C(=O)N[C@H](C(=O)N[C@@H](CC(N)=O)C(=O)N[C@@H](C)C(=O)N[C@@H](CCC(=O)O)C(=O)N[C@H](C(=O)N[C@@H](CC(C)C)C(=O)N[C@@H](C)C(=O)N[C@@H](CCC(=O)O)C(=O)N[C@H](C(N)=O)C(C)C)[C@@H](C)CC)[C@@H](C)O)C(C)C)[C@@H](C)CC)[C@@H](C)CC)C(C)C)C(C)C [compound 84] (H-IVLSLDV[Hyp]IGLLQILLEQARARVAREQAK([AEEA-AEEA-γGlu-γGlu-C20 diacid])TNAEILAEV-NH2)
